Literature values as cited in patent publication US20210290639A1, “IMMEDIATE RELEASE FORMULATION OF A TRIPLE COMBINATION OF ACTIVE PHARMACEUTICAL INGREDIENTS USEFUL IN THE TREATMENT OF POLYCYSTIC OVARY SYNDROME” (priority 2018, published 2021).

Details: low solubility and high permeability

BCS class	SMILES
Class II	CCc1ccc(CCOc2ccc(CC3SC(=O)NC3=O)cc2)nc1 (racemic) [pioglitazone, ((±)-5-[p-[2-(5-Ethyl-2-pyridyl)ethoxy]benzyl]-2,4-thiazolidinedione]
Class II	CC(=O)S[C@@H]1CC2=CC(=O)CC[C@]2(C)[C@H]2CC[C@@]3(C)[C@@H](CC[C@@]34CCC(=O)O4)[C@H]12 [spironolactone, 7α-Acetylthio-3-oxo-17α-pregn-4-ene-21,17β-carbolactone]
